The results in this text go back to US9133225B2, “Dual targeting anticancer agents” (priority 2013, dated 2015).

Data set [1] deals with A549 cells. Description: JC-1 mitochondrial membrane potential assay. The format is cell-based. The conditions noted are these: cisplatin or Pt(IV)(α-TOS)(OEt) at 20 μM, 4 hours. How it is done: To investigate the effect of Pt(IV)(α-TOS)(OEt) on mitochondria, changes in the mitochondrial membrane potential were assessed by the JC-1 assay. JC-1 (5,5′,6,6′-tetrachloro-1,1′3,3′-tetraethylbenzimidazolylcarbocyanine iodide) is a positively charged lipophilic dye, which accumulates in the mitochondria of healthy cells as red-emitting aggregates. When the mitochondrial membrane is compromised, JC-1 de-aggregates into monomeric forms that emit green fluorescence. […] These findings were confirmed using flow cytometry. A large population of untreated and Pt(IV)(α-TOS)(OEt)-treated A549 cells were examined.
In order to monitor the cell cycle, flow cytometry studies were carried out. A549 cells were incubated with and without the test compounds for 24 and 48 h at 37° C. Cells were harvested from adherent cultures by trypsinization and combined with all detached cells from the incubation medium to assess total cell viability. Following centrifugation at 1000 rpm for 5 min, cells were washed with PBS and then fixed with 70% ethanol in PBS. Fixed cells were collected by centrifugation at 2500 rpm for 3 min, washed with PBS and centrifuged as before. Cellular pellets were re-suspended in 50 μg/mL propidium iodide (Sigma) in PBS for nucleic acids staining and treated with 100 μg/mL RNaseA (Sigma). DNA content was measured on a FACSCalibur-HTS flow cytometer (BD Biosciences) using laser excitation at 488 nm and 20,000 events per sample were acquired. Cell cycle profiles were analysed using the ModFit software. For the apoptosis experiments, the Annexin V-FITC Early Apoptosis Detection Kit (Cell Signaling Technology) was used. […] The samples were kept on ice prior to being read on the FACSCalibur-HTS flow cytometer (BD Biosciences) (20,000 events per sample were acquired). Cell populations were analysed using the FlowJo software (Tree Star). […] The cells were incubated for 30 min, harvested, and analysed by using the FACSCalibur-HTS flow cytometer (BD Biosciences) (20,000 events per sample were acquired). […] Cell populations were analysed using the FlowJo software (Tree Star).

The subject of a further data set is HCT116 cells. Description: MTT cytotoxicity assay, HCT116. The text has this: (§1) (a) Dulbecco's Modified Eagle Medium (DMEM), Dulbecco's phosphate buffered saline (DPBS), fetal bovine serum (FBS) and 0.25% trypsin/EDTA solutions were purchased from Cellgro (Manassas, Va.). Penicillin-streptomycin solutions were purchased from Mediatech (Manassas, Va.). (b) HeLa (CCL-2TM) cells, A549, A2870, A2870/CP70, MCF-7, PC-3, and MRC-5 cells were purchased from American Type Culture Collection (ATCC, Manassas, Va., USA). (c) HCT116 cells were kindly donated by Laura Trudel (MIT). HeLa, A549, MCF-7, and MRC-5 cells were cultured using DMEM supplemented with 10% FBS and 1% penicillin-streptomycin. A2870, A2870/CP70, and PC-3 cells were cultured in RPMI supplemented with 10% FBS and 1% penicillin-streptomycin. HCT116 cells were cultured in McCoy's supplemented with 10% FBS and 1% penicillin-streptomycin. All cell-culture experiments were performed in the aforementioned media in an incubator operating at 37° C. and in the presence of a humidified atmosphere containing 5.0% CO2. Cells were harvested using a 0.25% trypsin/EDTA solution.
(§2) The cytotoxicity of the compounds was assessed by means of the MTT assay (MTT=3-(4,5-dimethyl-2-thiazolyl)-2,5-diphenyl-2H-tetrazolium bromide). Typically, on day one, ˜1×10^3 cells were seeded into 96-well plates in 100 μL media per well. The last row of the plate was left empty as a control for background absorption. The cells were allowed to grow for 24 h in the incubator at 37° C. On day two, a series of drug dilutions in growth media were prepared immediately prior to cell treatment. The media in the wells of the 96 plates were replaced with 100 μL of growth media containing appropriate drug concentrations. The cells were treated for 48 h at 37° C. in the incubator. On day four, a stock solution of MTT (5 mg/mL in PBS buffer) was diluted with media so that, when 100 μL of the media was added to each well, 10 μL of MTT stock was applied. […] The optical density for each well at 550 nm was measured with a microplate reader.
(In general: Formazan colour is commonly taken as a measure of viable cells.)

The test system of the next data set is Bcl-xL. Briefly: Immunoblotting analysis of Bcl-xL expression. The class given is cell-based. The conditions noted are these: A549 cells. How it is done:
(§3) α-TOS is known to disrupt Bcl-xL-Bax interactions, activate Bax, and thus mediate mitochondrial centered apoptotic cell death. Co-immunoprecipitation studies were carried out to determine whether the Pt(IV)-α-TOS conjugates could behave in a similar manner. […] Additional immunoblotting studies were carried to determine the effect of Pt(IV)(α-TOS)(OEt) treatment on transcription. […] Overall Pt(IV)(α-TOS)(OEt) was able to (1) downregulate Bcl-xL expression and (2) inhibit the interaction of Bcl-xL with Bax, a prerequisite for mitochondrial dysfunction. The former is inherent to cisplatin but not α-TOS, and the latter was inherent to α-TOS but not cisplatin.
A549 cells (5×10^5 cells) were incubated with test compound for 48 h at 37° C. Cells were washed with PBS, scraped into SDS-PAGE loading buffer (64 mM Tris-HCl (pH6.8)/9.6% glycerol/2% SDS/5% β-mercaptoethanol/0.01% Bromophenol Blue) and incubated at 95° C. for 10 min. Whole cell lysates were resolved by 4-20% sodium dodecylsulphate polyacylamide gel electrophoresis (SDS-PAGE; 200 V for 1 h) followed by electro transfer to polyvinylidene difluoride membrane, PVDF (350 mA for 1 h). Membranes were blocked in 5% (w/v) non-fat milk in PBST (PBS/0.1% Tween 20) and incubated with the appropriate primary antibodies (Cell Signalling Technology and Santa Cruz). After incubation with horseradish peroxidase-conjugated secondary antibodies (Cell Signalling Technology), immune complexes were detected with the ECL detection reagent (BioRad) and analysed using an Alpha Innotech ChemiImager™ 5500 fitted with a chemiluminescence filter.

The subject of a further data set is MCF-7 cells. Description: MTT cytotoxicity assay, MCF-7.
Excerpt: as §1, §2

The test system of a further data set is all cell lines. Description: MTT cytotoxicity assay, across the cell lines. The conditions noted are these: all cell lines; MTT; read-out: IC50 against all cell lines. The class given is cell-based.
Excerpt: as §1
(§4) The cytotoxicity of the compounds was assessed by means of the MTT assay (MTT=3-(4,5-dimethyl-2-thiazolyl)-2,5-diphenyl-2H-tetrazolium bromide). Typically, on day one, ˜1×10^3 cells were seeded into 96-well plates in 100 μL media per well. […] The optical density for each well at 550 nm was measured with a microplate reader.

The test system of the next data set is PC-3 cells. Briefly: MTT cytotoxicity assay, PC-3.
Excerpt: as §1, §2

Data set [2] relates to MRC-5 non-tumorigenic lung fibroblast cells. Briefly: in vitro.
Excerpt: as §1
(§5) The cytotoxicity of the compounds was assessed by means of the MTT assay (MTT=3-(4,5-dimethyl-2-thiazolyl)-2,5-diphenyl-2H-tetrazolium bromide). Typically, on day one, ˜1×10^3 cells were seeded into 96-well plates in 100 μL media per well. The last row of the plate was left empty as a control for background absorption. The cells were allowed to grow for 24 h in the incubator at 37° C. On day two, a series of drug dilutions in growth media were prepared immediately prior to cell treatment. The media in the wells of the 96 plates were replaced with 100 μL of growth media containing appropriate drug concentrations. The cells were treated for 48 h at 37° C. in the incubator. On day four, a stock solution of MTT (5 mg/mL in PBS buffer) was diluted with media so that, when 100 μL of the media was added to each well, 10 μL of MTT stock was applied. The cells were incubated for 2 h and then all the media was replaced with 100 μL of DMSO to dissolve the purple MTT-formazan crystals. The optical density for each well at 550 nm was measured with a microplate reader.

Another data set addresses T1, Bcl-xL-Bax interactions (Homo sapiens, UniProt Q07817).
T1 construct: endogenous in cells; host or cells: A549
Description: Co-immunoprecipitation of Bcl-xL, probed for Bax. The conditions noted are these: A549 cells, respective IC50 values, 48 h. The class given is cell-based. As for the experimental part: as §3
A549 cells (5×10^5 cells) were incubated with test compound for 48 h at 37° C. […] The resultant cell lysate was treated with protein A-agarose bead slurry (50 μL) and centrifuged to remove proteins that bind non-specifically. Anti Bcl-XL antibody (Cell Signalling Technology) was added to the lysate and incubated for 2 h at room temperature. Protein A-agarose bead slurry (50 μL) was added and the mixture was incubated at 4° C. overnight. Centrifugation allowed separation of the immunocomplex, which was washed with cold RIPA buffer (3×500 μL). The immunocomplex was then suspended in SDS-PAGE loading buffer (50 μL) and incubated at 95° C. for 10 min. The solution containing the immunocomplex was isolated by centrifugation and then analysed for Bax content using the immunoblotting analysis protocol described above.

A further data set can be described thus: in vitro. The conditions noted are these: human.
Excerpt: as §1, §5

Data set [3] concerns A2780 ovarian cancer cells. Briefly: PI-annexin-V dual staining apoptosis assay. The class given is cell-based. The conditions noted are these: 10 μM for 48 hours.
For data set [4], the system named is A2780 ovarian carcinoma cells. Briefly: MTT cytotoxicity assay, A2780.
Excerpt: as §1, §4

In data set [5] the test system is A2780/CP70 cells (CisPt resistant). Briefly: MTT cytotoxicity assay, A2780/CP70.
Excerpt: as §1, §4

Data set [6] has as its system A549 cells. Description: MTT cytotoxicity assay, A549.
Excerpt: as §1, §4

The test system of a further data set is HeLa cells. Briefly: MTT cytotoxicity assay, HeLa.
Excerpt: as §1, §4

T1 sequence (Q07817 whole entry): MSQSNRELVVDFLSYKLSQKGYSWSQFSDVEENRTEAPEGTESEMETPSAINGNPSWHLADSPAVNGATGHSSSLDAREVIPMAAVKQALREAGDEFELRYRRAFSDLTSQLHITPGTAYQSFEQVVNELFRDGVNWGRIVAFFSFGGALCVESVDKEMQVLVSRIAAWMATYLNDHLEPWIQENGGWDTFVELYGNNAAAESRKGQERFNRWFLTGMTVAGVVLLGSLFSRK

Consider `N#CC(C#N)=NNc1cccc(Cl)c1` [CCCP, carbonyl cyanide m-chlorophenyl hydrazone, reference compound], for which, in the data set with A549 cells [1], the “JC-1 fluorescence (mitochondrial membrane disruption), microscopy” value was “increased green fluorescence and diminished red fluorescence”.

For the molecule `CC(=O)[O][Pt]([NH2])([NH2])([Cl])([Cl])[O]C(C)=O` [Pt(IV)(OAc)2], the IC50 (with HCT116 cells; in the data set on MCF-7 cells; with all cell lines; with PC-3 cells; in [2]) was greater than 100 µM throughout. For the same molecule, the Bcl-xL expression result in the data set with Bcl-xL was “A similar trend was observed”. On Bcl-xL-Bax interactions, the “Bcl-xL-Bax interaction (Bax associated to the Bcl-xL immunoprecipitate)” value (shortened to “Bcl-xL-Bax interaction”) is listed as “less affected”.

Take `Cc1c(C)c2c(c(C)c1OC(=O)CCC(=O)[O][Pt]([NH2])([NH2])([Cl])([Cl])[O]C(=O)CCC(=O)Oc1c(C)c(C)c3c(c1C)CCC(C)(CCCC(C)CCCC(C)CCCC(C)C)O3)CCC(C)(CCCC(C)CCCC(C)CCCC(C)C)O2` (stereo not drawn) [Pt(IV)(α-TOS)2]: the Bcl-xL expression entry with Bcl-xL was “A similar trend was observed”. For the same molecule, in “in vitro”, the concentration for half-maximal inhibition (IC50) at 48 h turned out to be 80.5 µM. Further, the “Bcl-xL-Bax interaction” value on Bcl-xL-Bax interactions is listed as “less affected”.

On to `N.N.[Cl][Pt][Cl]` [cisplatin, reference compound], for which, in the data set with Bcl-xL, the Bcl-xL expression entry is “A similar trend was observed”. Further, in [3], the “cells displaying apoptotic properties” value stood at 10%. Besides, the “Bcl-xL-Bax interaction” value at Bcl-xL-Bax interactions was “less affected”.

In the case of `Cc1c(C)c2c(c(C)c1OC(=O)CCC(=O)O)CC[C@@](C)(CCC[C@H](C)CCC[C@H](C)CCCC(C)C)O2` [α-TOS, α-tocopherol succinate, reference compound], the IC50 in data set [4] was found to be 13.8 µM; in the data set with HCT116 cells, 31.2 µM; in the data set with MCF-7 cells it was 40.5 µM; in data set [5], 21.7 µM; in the data set on A549 cells [6], 26.9 µM; with HeLa cells, 25.1 µM. For the same molecule, the figures for the concentration for half-maximal inhibition (IC50) (in the data set on PC-3 cells; in data set [2]) were 37 µM and 28.5 µM, respectively. The “Bcl-xL-Bax interaction” value at Bcl-xL-Bax interactions is “markedly lower than the untreated control”.

In general, IC50 refers to the concentration needed to halve the response being measured.
